≈ marks a conversion by molar mass, not a printed value.
How the values were obtained:
Type in all cases: cell-based
[1] = tested on: Bacteroides thetiotaomicron ATCC 29741; experiment: Antimicrobial susceptibility, broth microdilution MIC (CLSI), QC strain; set-up: MIC, QC ATCC 297415: unit not given beside the values; settings: for MIC: Bacteroides, ATCC 29741 / ATCC 297415, read-out: MIC, QC ATCC 297415
[2] = tested on: Akkermansia muciniphila EB-AMDK39 strain; experiment: Antimicrobial susceptibility, broth microdilution MIC (CLSI), isolated strain; settings: for MIC: Akkermansia muciniphila, EBAMDK39STRAIN, read-out: MIC, test strain EB-AMDK39, broth microdilution
[3] = tested on: Akkermansia muciniphila ATCC BAA-835; experiment: Antimicrobial susceptibility, broth microdilution MIC (CLSI), type strain; settings: for MIC: Akkermansia muciniphila, ATCCBAA835, broth microdilution, read-out: MIC, test strain ATCC BAA-835

Row | Compound | MIC [1] | MIC [2] | MIC [3] | other results
1 | O=C(N[C@H](CO)[C@H](O)c1ccc([N+](=O)[O-])cc1)C(Cl)Cl [CHL, chloramphenicol] | 8 mg/L (≈ 24.8 µM) | 8 mg/L (≈ 24.8 µM) | 4 mg/L (≈ 12.4 µM) | Susceptibility category by MIC breakpoints, CHL ([2]; EB-AMDK39, CHL breakpoints): S (≤8); Susceptibility category by MIC breakpoints, CHL ([3]; ATCC BAA-835, CHL breakpoints): S (≤8)
2 | CCC[C@@H]1C[C@@H](C(=O)N[C@@H]([C@H]2O[C@H](SC)[C@H](O)[C@@H](O)[C@H]2O)[C@H](C)Cl)N(C)C1 [CLI, clindamycin] |  | > 64 mg/L | ≤ 0.125 mg/L | Susceptibility category by MIC breakpoints, CLI ([2]; EB-AMDK39, CLI breakpoints): R (≥8); Susceptibility category by MIC breakpoints, CLI ([3]; ATCC BAA-835, CLI breakpoints): S (≤2)
3 | CO/N=C(\C(=O)N[C@@H]1C(=O)N2C(C(=O)O)=CCS[C@H]12)c1csc(N)n1 [CTZ, ceftizoxime] | 16 mg/L (≈ 41.7 µM) | 256 mg/L (≈ 668 µM) | 2 mg/L (≈ 5.22 µM) | Susceptibility category by MIC breakpoints, CTZ ([2]; EB-AMDK39, CTZ breakpoints): R (≥128); Susceptibility category by MIC breakpoints, CTZ ([3]; ATCC BAA-835, CTZ breakpoints): S (≤32)
4 | C[C@@H](O)[C@H]1C(=O)N2C(C(=O)O)=C(S[C@@H]3CN[C@H](C(=O)N(C)C)C3)[C@H](C)[C@H]12 [MEM, meropenem] | 0.5 mg/L (≈ 1.3 µM) | 4 mg/L (≈ 10.4 µM) | 1 mg/L (≈ 2.61 µM) | Susceptibility category by MIC breakpoints, MEM ([2]; EB-AMDK39, MEM breakpoints): S (≤4); Susceptibility category by MIC breakpoints, MEM ([3]; ATCC BAA-835, MEM breakpoints): S (≤4)
5 | Cc1ncc([N+](=O)[O-])n1CCO [MTZ, metronidazole] | 2 mg/L (≈ 11.7 µM) | 1 mg/L (≈ 5.84 µM) | ≤ 0.25 mg/L | Susceptibility category by MIC breakpoints, MTZ ([2]; EB-AMDK39, MTZ breakpoints): S (≤8); Susceptibility category by MIC breakpoints, MTZ ([3]; ATCC BAA-835, MTZ breakpoints): S (≤8)
6 | COc1c(N2C[C@@H]3CCCN[C@@H]3C2)c(F)cc2c(=O)c(C(=O)O)cn(C3CC3)c12 [MXF, moxifloxacin] | 8 mg/L (≈ 19.9 µM) | > 32 mg/L | > 32 mg/L | Susceptibility category by MIC breakpoints, MXF ([2]; EB-AMDK39, MXF breakpoints): R (≥8); Susceptibility category by MIC breakpoints, MXF ([3]; ATCC BAA-835, MXF breakpoints): R (≥8)
7 | Piperacillin-tazobactam [PTZ] |  |  |  | MIC, QC ATCC 297415 ([1]; broth microdilution, QC strain): 8/4; Susceptibility category by MIC breakpoints, PTZ ([2]; EB-AMDK39, PTZ breakpoints): S (≤32/4); Susceptibility category by MIC breakpoints, PTZ ([3]; ATCC BAA-835, PTZ breakpoints): S (≤32/4)
